Earlier results on 1 compound are cited in patent publication US20060024422A1, “Salt substitute compositions having N-neohexyl-a-aspartyl-l- phenylalanine methyl ester for modifying flavor and methods of manufacturing the same” (Cumberland Packing Corp., priority 2004, published 2006).

Molecules are shown by their SMILES.

For the data set the following is noted: on a weight basis.

Turning to `COC(=O)[C@H](Cc1ccccc1)NC(=O)[C@H](CC(=O)O)NCCC(C)(C)C` [neotame, N-[N-(3,3-dimethylbutyl)-L-α-aspartyl]-L-phenylalanine 1-methyl ester], the “Sweetness relative to sucrose” value is “approximately 8,000 times”.
